# Results: ChEMBL document CHEMBL3885861, “Open TG-GATES”
# Species on record: Rattus norvegicus
# Test: Open TG-GATES - Regimen: Single
# Assay type: toxicity, organism-based, Sprague-Dawley
# Set-up: regimen Single, gender Male, age 6 weeks
# Conditions: in vivo, po, route gavage; for Eos / Fbg / Hb / Ht / Lym / MCH / MCHC / MCV / Mono / Neu / PT / Plat / RBC / Ret / WBC / APTT / Bas: tissue Blood; for KIDNEY_L / KIDNEY_R / KIDNEY_TOTAL: tissue Kidney; for LIVER: tissue Liver; for A/G / ALP / ALT / AST / BUN / CRE / Ca / Cl / DBIL / GLC / IP / K / LDH / Na / PL / RALB / TBIL / TC / TG / TP / gamma-GTP: tissue Plasma
# [1] = 30 mg/kg, 3 h, dose level Middle
# [2] = 30 mg/kg, 6 h, dose level Middle
# [3] = 30 mg/kg, 9 h, dose level Middle
compound,measurement,setting,value
O=C1CN(/N=C/c2ccc([N+](=O)[O-])o2)C(=O)N1 [NITROFURANTOIN],Eos,"10 mg/kg, 24 h, dose level Low",1%
same,Fbg,"10 mg/kg, 24 h, dose level Low",212.8 mg/dL
same,Hb,"10 mg/kg, 24 h, dose level Low",13.1 g/dL
same,Ht,"10 mg/kg, 24 h, dose level Low",37.6%
same,Lym,"10 mg/kg, 24 h, dose level Low",80.2%
same,MCH,"10 mg/kg, 24 h, dose level Low",21.9 pg
same,MCHC,"10 mg/kg, 24 h, dose level Low",34.9%
same,MCV,"10 mg/kg, 24 h, dose level Low",62.7 fL
same,Mono,"10 mg/kg, 24 h, dose level Low",2.2%
same,Neu,"10 mg/kg, 24 h, dose level Low",15.4%
same,PT,"10 mg/kg, 24 h, dose level Low",12.6 s
same,Plat,"10 mg/kg, 24 h, dose level Low",126.9 x10_4/uL
same,RBC,"10 mg/kg, 24 h, dose level Low",599.6 x10_4/ul
same,Ret,"10 mg/kg, 24 h, dose level Low",7%
same,WBC,"10 mg/kg, 24 h, dose level Low",79.2 x10_2/uL
same,KIDNEY_L,"10 mg/kg, 24 h, dose level Low",1.1 g
same,KIDNEY_R,"10 mg/kg, 24 h, dose level Low",1.1 g
same,KIDNEY_TOTAL,"10 mg/kg, 24 h, dose level Low",2.1 g
same,LIVER,"10 mg/kg, 24 h, dose level Low",11.3 g
same,A/G,"10 mg/kg, 24 h, dose level Low",1.6
same,ALP,"10 mg/kg, 24 h, dose level Low",999.6 IU/L
same,ALT,"10 mg/kg, 24 h, dose level Low",38.4 IU/L
same,AST,"10 mg/kg, 24 h, dose level Low",63.4 IU/L
same,BUN,"10 mg/kg, 24 h, dose level Low",16.8 mg/dL
same,CRE,"10 mg/kg, 24 h, dose level Low",0.4 mg/dL
same,Ca,"10 mg/kg, 24 h, dose level Low",10.9 mg/dL
same,Cl,"10 mg/kg, 24 h, dose level Low",101.8 meq/L
same,DBIL,"10 mg/kg, 24 h, dose level Low",0.1 mg/dL
same,GLC,"10 mg/kg, 24 h, dose level Low",211.6 mg/dL
same,IP,"10 mg/kg, 24 h, dose level Low",7.1 mg/dL
same,K,"10 mg/kg, 24 h, dose level Low",4.3 meq/L
same,LDH,"10 mg/kg, 24 h, dose level Low",168.2 IU/L
same,Na,"10 mg/kg, 24 h, dose level Low",139.4 meq/L
same,PL,"10 mg/kg, 24 h, dose level Low",151.6 mg/dL
same,RALB,"10 mg/kg, 24 h, dose level Low",3.3 g/dL
same,TBIL,"10 mg/kg, 24 h, dose level Low",0.2 mg/dL
same,TC,"10 mg/kg, 24 h, dose level Low",78.8 mg/dL
same,TG,"10 mg/kg, 24 h, dose level Low",105.8 mg/dL
same,TP,"10 mg/kg, 24 h, dose level Low",5.4 g/dL
same,gamma-GTP,"10 mg/kg, 24 h, dose level Low",0.8 IU/L
same,TERMINAL_BW,[1],218.7 g
same,APTT,[1],18.8 s
same,Bas,[1],0%
same,Eos,[1],1.2%
same,Fbg,[1],219.2 mg/dL
same,Hb,[1],13.8 g/dL
same,Ht,[1],39.3%
same,Lym,[1],79%
same,MCH,[1],21.6 pg
same,MCHC,[1],35.2%
same,MCV,[1],61.4 fL
same,Mono,[1],2%
same,Neu,[1],16.8%
same,PT,[1],12.6 s
same,Plat,[1],113.7 x10_4/uL
same,RBC,[1],642 x10_4/ul
same,Ret,[1],7.5%
same,WBC,[1],82.7 x10_2/uL
same,KIDNEY_L,[1],1 g
same,KIDNEY_R,[1],1 g
same,KIDNEY_TOTAL,[1],2 g
same,LIVER,[1],10.8 g
same,A/G,[1],1.5
same,ALP,[1],1203 IU/L
same,ALT,[1],37.6 IU/L
same,AST,[1],66.6 IU/L
same,BUN,[1],12.8 mg/dL
same,CRE,[1],0.4 mg/dL
same,Ca,[1],10.6 mg/dL
same,Cl,[1],101.4 meq/L
same,DBIL,[1],0.074 mg/dL
same,GLC,[1],194.6 mg/dL
same,IP,[1],9 mg/dL
same,K,[1],4 meq/L
same,LDH,[1],180 IU/L
same,Na,[1],140.6 meq/L
same,PL,[1],136 mg/dL
same,RALB,[1],3.3 g/dL
same,TBIL,[1],0.1 mg/dL
same,TC,[1],74.6 mg/dL
same,TG,[1],62.2 mg/dL
same,TP,[1],5.5 g/dL
same,gamma-GTP,[1],0.8 IU/L
same,TERMINAL_BW,[2],219.6 g
same,APTT,[2],19 s
same,Bas,[2],0%
same,Eos,[2],1%
same,Fbg,[2],219 mg/dL
same,Hb,[2],13.3 g/dL
same,Ht,[2],37.6%
same,Lym,[2],75%
same,MCH,[2],21.5 pg
same,MCHC,[2],35.3%
same,MCV,[2],61 fL
same,Mono,[2],2.6%
same,Neu,[2],20%
same,PT,[2],12.7 s
same,Plat,[2],115.2 x10_4/uL
same,RBC,[2],616.2 x10_4/ul
same,Ret,[2],7.6%
same,WBC,[2],82.3 x10_2/uL
same,KIDNEY_L,[2],1 g
same,KIDNEY_R,[2],1 g
same,KIDNEY_TOTAL,[2],2 g
same,LIVER,[2],9.8 g
same,A/G,[2],1.6
same,ALP,[2],861.8 IU/L
same,ALT,[2],31 IU/L
same,AST,[2],58.8 IU/L
same,BUN,[2],11 mg/dL
same,CRE,[2],0.4 mg/dL
same,Ca,[2],10.6 mg/dL
same,Cl,[2],103.2 meq/L
same,DBIL,[2],0.072 mg/dL
same,GLC,[2],191 mg/dL
same,IP,[2],9.2 mg/dL
same,K,[2],4.1 meq/L
same,LDH,[2],168.6 IU/L
same,Na,[2],140.8 meq/L
same,PL,[2],132 mg/dL
same,RALB,[2],3.3 g/dL
same,TBIL,[2],0.1 mg/dL
same,TC,[2],73.4 mg/dL
same,TG,[2],64 mg/dL
same,TP,[2],5.4 g/dL
same,gamma-GTP,[2],0.8 IU/L
same,TERMINAL_BW,[3],216.9 g
same,APTT,[3],18.6 s
same,Bas,[3],0%
same,Eos,[3],0.8%
same,Fbg,[3],213.4 mg/dL
same,Hb,[3],13.3 g/dL
same,Ht,[3],38%
same,Lym,[3],79.6%
same,MCH,[3],21.9 pg
same,MCHC,[3],35.1%
same,MCV,[3],62.3 fL
same,Mono,[3],3.2%
same,Neu,[3],14.8%
same,PT,[3],12.9 s
same,Plat,[3],107.6 x10_4/uL
same,RBC,[3],609.8 x10_4/ul
same,Ret,[3],7.5%
same,WBC,[3],96.9 x10_2/uL
same,KIDNEY_L,[3],1 g
same,KIDNEY_R,[3],1 g
same,KIDNEY_TOTAL,[3],2 g
same,LIVER,[3],9.5 g
